The source of these data is patent publication US20200299306A1, “COMPOUNDS WITH A BENZO[A]CARBAZOLE STRUCTURE AND USE THEREOF” (UNIVERSITA' DI PISA, priority 2017, published 2020).

The structures appear in SMILES notation.

The subject of the first assay is U343MG. Nature of the assay: Effect on cell cycle (U343MG). The assay is classed as cell-based, human. The settings on record: FIG. 6. How it is done:
7) Effect of RM37 on cell cycle (U343MG; 1,2). […] The results are set out in FIG. 6.
Turning to `CC(=O)OCC1=C(C(=O)OC(C)(C)C)N2C(=O)[C@@H](NC(=O)COc3ccc4c(c3)CCc3c-4[nH]c4ccc(F)cc34)[C@H]2SC1` [RM37, (6R, 7R)-tert-butyl-7-(2-(8-fluoro-6,11-dihydro-5H-benzo[a]carbazol-3-yloxy)acetamido)-3-(acetoxymethyl)-8-oxo-5-thia-1-azabicyclo[4.2.0]oct-2-ene-2-carboxylate], the “Effect on cell cycle” value is on record as “blocks the cell cycle in G1”.

The next assay deals with T1, p53/MDM2 complex (Homo sapiens, UniProt Q00987).
T1 construct: Test performed on cell lysate of human glioblastoma (GBM) cells U343MG; endogenous in cells; host or cells: U343MG human glioblastoma cells (lysate)
T1 sequence (Q00987 whole entry, one chain of several): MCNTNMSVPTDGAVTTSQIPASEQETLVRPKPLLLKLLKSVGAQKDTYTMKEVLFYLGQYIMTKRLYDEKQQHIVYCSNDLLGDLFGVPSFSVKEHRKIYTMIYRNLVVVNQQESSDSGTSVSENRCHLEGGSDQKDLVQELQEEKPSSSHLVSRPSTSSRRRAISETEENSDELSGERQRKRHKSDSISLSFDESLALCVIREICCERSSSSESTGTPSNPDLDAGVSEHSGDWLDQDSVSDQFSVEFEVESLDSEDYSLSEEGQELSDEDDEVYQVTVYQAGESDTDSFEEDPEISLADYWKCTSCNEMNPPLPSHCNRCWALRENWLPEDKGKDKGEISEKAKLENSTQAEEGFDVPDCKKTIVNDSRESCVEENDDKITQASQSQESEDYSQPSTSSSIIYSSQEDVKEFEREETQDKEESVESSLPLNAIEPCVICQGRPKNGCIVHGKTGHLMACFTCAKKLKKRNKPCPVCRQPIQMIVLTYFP
Nature of the assay: Inhibitory effect on p53/MDM2 complex binding, cell lysate of human glioblastoma U343MG cells. The following applies: 10 uM; cell lysate of human glioblastoma (GBM) cells U343MG; read-out: % inhibition at 10 uM of p53/MDM2 complex binding. How it is done: Test performed on cell lysate of human glioblastoma (GBM) cells U343MG (1,2).
For `CN(C)CCCn1c2ccc(Cl)cc2c2ccc3cc(OCC(=O)O)ccc3c21` [RM58], the inhibition at 10 µM came out at 58%.

As for `COc1ccc2c(c1)-c1[nH]c3ccc(Cl)cc3c1CO2` [RA16], the inhibition at 10 µM was less than 5%.

Consider `CCNC(=O)COc1ccc2c(c1)S(=O)(=O)Cc1c-2[nH]c2ccc(F)cc12` [RA13], for which the inhibition at 10 µM stood at 22%.

Turning to `Clc1ccc2[nH]c3c(c2c1)COc1ccccc1-3` [RA15], the inhibition at 10 µM was less than 5%.

Consider `CC(=O)OCC1=C(C(=O)O)N2C(=O)[C@@H](NC(=O)COc3ccc4c(c3)CCc3c-4[nH]c4ccc(F)cc34)[C@H]2SC1` [RM53, (6R,7R)-7-(2-[(8-fluoro-6,11-dihydro-5H-benzo[a]carbazol-3-yl)oxy]acetamido)-3-(acetoxymethyl)-8-oxy-5-thia-1-azabicyclo[4.2.0]oct-2-ene-2-carboxylic acid], for which the inhibition at 10 µM was less than 5%.

Staying with this assay, now noted: cell lysate of human glioblastoma (GBM) cells U343MG.
The IC50 is the concentration needed to halve the response being measured. The compound `CC(=O)OCC1=C(C(=O)OC(C)(C)C)N2C(=O)C(NC(=O)COc3ccc4c(c3)/C(=N\O)Cc3c-4[nH]c4ccc(F)cc34)C2SC1` (stereo not shown) [RM38] had a concentration for half-maximal inhibition (IC50) of 222 ± 210 nM.

Regarding `CC(=O)OCC1=C(C(=O)OC(C)(C)C)N2C(=O)[C@@H](NC(=O)COc3ccc4c(c3)CCc3c-4[nH]c4cccc([N+](=O)[O-])c34)[C@H]2SC1` [GA09a], the IC50 came out at 650 ± 50 nM.

For `CC(=O)OCC1=C(C(=O)OC(C)(C)C)N2C(=O)C(NC(=O)COc3ccc4c(c3)S(=O)(=O)NCc3c-4[nH]c4ccc(F)cc34)C2SC1` (stereo not shown) [RA40], the half-maximal inhibitory concentration (IC50) worked out at 197 ± 124 nM.

`CCNC(=O)CO/N=C1/Cc2c([nH]c3ccc(F)cc23)-c2ccc(OCC(=O)NC3C(=O)N4C3SC(C)(C)C4C(=O)OCc3ccc(OC)cc3)cc21` (stereo not shown) [RA29] returned a concentration for half-maximal inhibition (IC50) of 100 ± 30 nM.

For the compound `CNC(=O)C(CCCNC(=O)OCc1ccccc1)NC(=O)COc1ccc2c(c1)OCc1c-2[nH]c2ccc(OCC(=O)NC(CCc3ccccc3)C(=O)N(C)C)cc12` (stereo not shown) [RA19], the half-maximal inhibitory concentration (IC50) was found to be 450 ± 15 nM.

Compound `CN(C)C(=O)C(CCCNC(=O)OCc1ccccc1)NC(=O)COc1ccc2c(c1)S(=O)(=O)NCc1c-2[nH]c2ccc(F)cc12` (stereo not shown) [RA3] had an IC50 of 620 ± 50 nM.

For the compound `CC(=O)OCC1=C(C(=O)OC(C)(C)C)N2C(=O)C(NC(=O)COc3ccc4c(c3)S(=O)(=O)Nc3c-4[nH]c4ccc(F)cc34)C2SC1` (stereo not shown) [RA36], the IC50 stood at 220 ± 100 nM.

With `CC(C)(C)OC(=O)C1N2C(=O)C(NC(=O)COc3ccc4c(c3)S(=O)(=O)NCc3c-4[nH]c4ccc(F)cc34)C2SC1(C)C` (stereo not shown) [RA42], the IC50 was 292 ± 25 nM.

`CC(=O)OCC1=C(C(=O)OC(C)(C)C)N2C(=O)C(NC(=O)COc3ccc4c(c3)OCc3c-4[nH]c4ccc(F)cc34)C2S(=O)(=O)C1` (stereo not shown) [RA31] showed an IC50 of 120 ± 45 nM.

Compound `CC(=O)OCC1=C(C(=O)OC(C)(C)C)N2C(=O)C(NC(=O)COc3ccc4c(c3)CCc3c-4[nH]c4ccc(Br)cc34)C2SC1` (stereo not shown) [RM47] had an IC50 of 195 ± 22 nM.

The compound `CCNC(=O)C(CCCNC(=O)OCc1ccccc1)NC(=O)CC1C(NC(=O)COc2ccc3c(c2)S(=O)(=O)Cc2c-3[nH]c3ccc(F)cc23)C(=O)N1CC(=O)OCc1ccc(OC)cc1` (stereo not shown) [RA30] had an IC50 of 150 ± 10 nM.

`CCOC(=O)CO/N=C1/Cc2c([nH]c3ccc(F)cc23)-c2ccc(OCC(=O)NC3C(=O)N4C(C(=O)OC(C)(C)C)=C(COC(C)=O)CSC34)cc21` (stereo not shown) [RA37] gave an IC50 of 180 ± 150 nM.

The compound `CNC(=O)C(CCCNC(=O)OCc1ccccc1)NC(=O)COc1ccc2c(c1)NCc1c-2[nH]c2ccc(F)cc12` (stereo not shown) [RA20] had an IC50 of 1550 ± 250 nM.

Regarding `CC(=O)OCC1=C(C(=O)OC(C)(C)C)N2C(=O)C(NC(=O)COc3ccc4c(c3)CCc3c-4[nH]c4ccc(Cl)cc34)C2SC1` (stereo not shown) [RM36], the IC50 worked out at 280 ± 20 nM.

Compound `COc1cc2c(cc1OC)-c1c(c3c(N)cccc3n1CCCN(C)C)CCC2` [GA17M8] gave a concentration for half-maximal inhibition (IC50) of 12700 ± 1500 nM. Compared with the last compound, the IC50 is about 45-fold higher.

In turn, `O=C(COc1ccc2c(c1)S(=O)(=O)CCc1c-2[nH]c2ccc(F)cc12)NCc1ccc(F)c(F)c1` [RA1] registered an IC50 of 920 ± 20 nM.

The compound `COc1ccc(COC(=O)C2N3C(=O)C(NC(=O)COc4ccc5c(c4)S(=O)(=O)CCc4c-5[nH]c5ccc(F)cc45)C3SC2(C)C)cc1` (stereo not shown) [RM43] returned a half-inhibitory concentration (IC50) of 228 ± 16 nM.

As to `COc1ccc2[nH]c3c(c2c1)CCCc1cc(OCC(=O)O)ccc1-3` [RA2], the IC50 is 2900 ± 120 nM. Against the preceding compound, the IC50 is about 13-fold higher.

Regarding `CC(=O)OCC1=C(C(=O)OC(C)(C)C)N2C(=O)C(NC(=O)COc3ccc4c(c3)S(=O)(=O)Cc3c-4[nH]c4ccc(F)cc34)C2SC1` (stereo not shown) [RA25], the concentration for half-maximal inhibition (IC50) was 143 ± 16 nM.

In the case of `COc1ccc(COC(=O)C2N3C(=O)C(NC(=O)COc4ccc5c(c4)OCc4c-5[nH]c5ccc(Br)cc45)C3SC2(C)C)cc1` (stereo not shown) [RA35], the half-maximal inhibitory concentration (IC50) came to 375 ± 22 nM.

Compound `CCOC(=O)/C(COc1ccc2c(ccc3c4cc(Cl)ccc4n(CCCN(C)C)c23)c1)=N/OC` [RM66] registered an IC50 of 2700 ± 120 nM.

Take `CC(=O)OCC1=C(C(=O)OC(C)(C)C)N2C(=O)[C@@H](NC(=O)COc3ccc4c(c3)CCc3c-4[nH]c4cc([N+](=O)[O-])ccc34)[C@H]2SC1` [GA09b]: the IC50 turned out to be 225 ± 20 nM.

In the case of `CNC(=O)C(CCCNC(=O)OCc1ccccc1)NC(=O)COc1ccc2c(c1)OCc1c-2[nH]c2ccc(F)cc12` (stereo not shown) [RA18], the IC50 is 1350 ± 150 nM. Against the preceding compound, the IC50 is about 6-fold higher.

In the case of `CCNC(=O)C(CCCNC(=O)OCc1ccccc1)NC(=O)CC1C(NC(=O)COc2ccc3c(c2)S(=O)(=O)NCc2c-3[nH]c3ccc(F)cc23)C(=O)N1CC(=O)OCc1ccc(OC)cc1` (stereo not shown) [RA44], the IC50 was 223 ± 22 nM.

In the case of `CC(=O)OCC1=C(C(=O)OC(C)(C)C)N2C(=O)C(NC(=O)COc3ccc4c(c3)C(=O)Cc3c-4[nH]c4ccc(C(F)(F)F)cc34)C2SC1` (stereo not shown) [RM39], the IC50 is 232 ± 200 nM.

As to `CC(=O)OCC1=C(C(=O)OC(C)(C)C)N2C(=O)[C@@H](NC(=O)COc3ccc4c(c3)CCc3c-4[nH]c4ccc(F)cc34)[C@H]2SC1` [RM37, (6R, 7R)-tert-butyl-7-(2-(8-fluoro-6,11-dihydro-5H-benzo[a]carbazol-3-yloxy)acetamido)-3-(acetoxymethyl)-8-oxo-5-thia-1-azabicyclo[4.2.0]oct-2-ene-2-carboxylate], the IC50 came out at 222 ± 44 nM.

`COc1ccc(COC(=O)C2N3C(=O)C(NC(=O)COc4ccc5c(c4)S(=O)(=O)Nc4c-5[nH]c5ccc(Br)cc45)C3SC2(C)C)cc1` (stereo not shown) [RA26]: the IC50 was 120 ± 90 nM.

The assay is the same for the next values; noted with them: read-out: % inhibition at 10 uM of p53/MDM2 complex binding.
On to `COC(=O)C(NC(=O)COc1ccc2c(ccc3c4cc(Cl)ccc4n(CCCN(C)C)c23)c1)c1ccccc1` (stereo not shown) [RM85], for which the inhibition at 10 µM is 82%.

The subject of another assay is protein p53. Nature of the assay: Stabilisation of intracellular levels of protein p53 (343MG). The assay is classed as cell-based, human. The following applies: U343MG; FIG. 3. From the text: 1) Costa, B; Grillone, A F; Salvetti, A; Rocchiccioli, S; Iacopetti, P; Daniele, S; Da Pozzo, E; Campiglia, P; Novellino, E; Martini, C; Rossi, L An antibody-free strategy for screening putative HDM2 inhibitors using crude bacterial lysates expressing GST-HDM2 recombinant protein Drug Testing and Analysis (2013), 5, 7, 596-601.
2) Costa B, Bendinelli S, Gabelloni P, Da Pozzo E, Daniele S, et al. Human Glioblastoma Multiforme: p53 Reactivation by a Novel MDM2 Inhibitor. PLoS ONE (2013) 8(8): e72281. doi:10.1371/journal.pone.0072281.
The results are set out in FIG. 3.
For `CC(=O)OCC1=C(C(=O)OC(C)(C)C)N2C(=O)[C@@H](NC(=O)COc3ccc4c(c3)CCc3c-4[nH]c4ccc(F)cc34)[C@H]2SC1` [RM37, (6R, 7R)-tert-butyl-7-(2-(8-fluoro-6,11-dihydro-5H-benzo[a]carbazol-3-yloxy)acetamido)-3-(acetoxymethyl)-8-oxo-5-thia-1-azabicyclo[4.2.0]oct-2-ene-2-carboxylate], the “Stabilisation of intracellular levels of protein p53” value is “stabilises the intracellular levels of protein p53”.

The next assay deals with p53. Nature of the assay: Stabilisation of p53 (U343MG). Type of assay: cell-based, human. The following applies: due to reduction of p53 bonded to MDM2, not mRNA induction, FIG. 1.
In the case of `CC(=O)OCC1=C(C(=O)OC(C)(C)C)N2C(=O)[C@@H](NC(=O)COc3ccc4c(c3)CCc3c-4[nH]c4ccc(F)cc34)[C@H]2SC1` [RM37, (6R, 7R)-tert-butyl-7-(2-(8-fluoro-6,11-dihydro-5H-benzo[a]carbazol-3-yloxy)acetamido)-3-(acetoxymethyl)-8-oxo-5-thia-1-azabicyclo[4.2.0]oct-2-ene-2-carboxylate], the “Stabilisation of p53” value was “stabilisation of p53”.

The next assay relates to U343MG. Nature of the assay: Effect on cell apoptosis (U343MG). The assay is classed as cell-based, human. The following applies: FIG. 7 and FIG. 8. How it is done:
8) Effect of RM37 on cell apoptosis (U343MG; 1,2). […] The results are set out in FIG. 7 and FIG. 8.
With `CC(=O)OCC1=C(C(=O)OC(C)(C)C)N2C(=O)[C@@H](NC(=O)COc3ccc4c(c3)CCc3c-4[nH]c4ccc(F)cc34)[C@H]2SC1` [RM37, (6R, 7R)-tert-butyl-7-(2-(8-fluoro-6,11-dihydro-5H-benzo[a]carbazol-3-yloxy)acetamido)-3-(acetoxymethyl)-8-oxo-5-thia-1-azabicyclo[4.2.0]oct-2-ene-2-carboxylate], the “Effect on cell apoptosis” value was “induces cell apoptosis”.
